{"source": "paper PMC2788029", "about": "(Journal of molecular biology, 2009)", "key": {"T4 lysozyme L99A/M102Q [1]": {"target": "T1, T4 lysozyme L99A/M102Q (Enterobacteria phage T4, UniProt P00720, C54T/C97A/L99A/M102Q)", "conditions": "cited from earlier work"}, "T4 lysozyme L99A/M102Q [2]": {"target": "T1, T4 lysozyme L99A/M102Q", "test": "biochemical", "assay_type": "binding"}, "T4 lysozyme L99A/M102Q [3]": {"target": "T1, T4 lysozyme L99A/M102Q", "assay_type": "binding"}, "[4]": {"conditions": "free energy of binding by ITC at 10°C, pH 6.8, prospective set"}}, "note": "Entries after “also recorded” stand apart in the source; their conditions may differ. Like-named read-outs stand apart in the source and are kept apart here."}
{"smiles": "Nc1ccccc1O", "note": "[2-aminophenol]", "values": [{"measurement": "binding to L99A/M102Q (known)", "setting": "T4 lysozyme L99A/M102Q [1]", "value": "non-binder; also recorded: does not bind detectably"}]}
{"smiles": "CCOC1CCC=CO1", "note": "(stereo not drawn) [2-ethoxy-3,4-dihydro-2h-pyran]", "values": [{"measurement": "binding free energy, estimated", "setting": "T4 lysozyme L99A/M102Q [2]", "value": "-3.88 to -2.59", "unit": "kcal/mol"}, {"measurement": "ΔGb,exp (binding class)", "setting": "T4 lysozyme L99A/M102Q [2]", "value": "weak"}]}
{"smiles": "CCOc1ccccc1O", "note": "[2-ethoxyphenol]", "values": [{"measurement": "ΔGb,exp", "setting": "T4 lysozyme L99A/M102Q [3]", "value": "-4.02 ± 0.03", "unit": "kcal/mol"}]}
{"smiles": "CCc1ccccc1O", "note": "[2-ethylphenol]", "values": [{"measurement": "ΔGb,exp", "setting": "T4 lysozyme L99A/M102Q [3]", "value": "-4.57 ± 0.11", "unit": "kcal/mol"}]}
{"smiles": "Cc1ccccc1O", "note": "[2-methylphenol]", "values": [{"measurement": "ΔGb,exp", "setting": "T4 lysozyme L99A/M102Q [3]", "value": "-4.44 ± 0.11", "unit": "kcal/mol"}]}
{"smiles": "O=[N+]([O-])c1cccs1", "note": "[2-nitrothiophene]", "values": [{"measurement": "ΔGb,exp", "setting": "T4 lysozyme L99A/M102Q [3]; [4]", "value": "-4.85 ± 0.25", "unit": "kcal/mol"}]}
{"smiles": "CCCc1ccccc1O", "note": "[2-propylphenol]", "values": [{"measurement": "ΔGb,exp", "setting": "T4 lysozyme L99A/M102Q [3]", "value": "-5.33 ± 0.05", "unit": "kcal/mol"}]}
{"smiles": "c1cc2c([nH]1)CCCC2", "note": "[4,5,6,7-tetrahydroindole]", "values": [{"measurement": "ΔGb,exp", "setting": "T4 lysozyme L99A/M102Q [3]; [4]", "value": "-4.61 ± 0.09", "unit": "kcal/mol"}]}
{"smiles": "Clc1cn[nH]c1", "note": "[4-chloro-1h-pyrazole]", "values": [{"measurement": "binding free energy, estimated", "setting": "T4 lysozyme L99A/M102Q [2]", "value": "-3.88 to -2.59", "unit": "kcal/mol"}, {"measurement": "ΔGb,exp (binding class)", "setting": "T4 lysozyme L99A/M102Q [2]", "value": "weak"}]}
{"smiles": "C=Cc1ccncc1", "note": "[4-vinylpyridine]", "values": [{"measurement": "binding to L99A/M102Q (known)", "setting": "T4 lysozyme L99A/M102Q [1]; known ligands and non-binders", "value": "non-binder"}]}
{"smiles": "Cc1ccc(Cl)cc1O", "note": "[5-chloro-2-methylphenol]", "values": [{"measurement": "ΔGb,exp", "setting": "T4 lysozyme L99A/M102Q [3]", "value": "-5.04 ± 0.07", "unit": "kcal/mol"}]}
{"smiles": "CC(=O)OCc1ccccc1", "note": "[benzyl acetate]", "values": [{"measurement": "ΔGb,exp", "setting": "T4 lysozyme L99A/M102Q [3]; [4]", "value": "-4.48 ± 0.16", "unit": "kcal/mol"}]}
{"smiles": "Oc1ccccc1O", "note": "[catechol, reference compound]", "values": [{"measurement": "ΔGb,exp", "setting": "T4 lysozyme L99A/M102Q [3]", "value": "-4.16 ± 0.03", "unit": "kcal/mol"}, {"measurement": "binding to L99A/M102Q (known)", "setting": "T4 lysozyme L99A/M102Q [1]; known ligands and non-binders", "value": "is a ligand"}]}
{"smiles": "O=Nc1ccccc1", "note": "[nitrosobenzene]", "values": [{"measurement": "binding free energy, estimated", "setting": "T4 lysozyme L99A/M102Q [2]", "value": "-3.88 to -2.59", "unit": "kcal/mol"}, {"measurement": "ΔGb,exp (binding class)", "setting": "T4 lysozyme L99A/M102Q [2]", "value": "weak"}, {"measurement": "Kd", "setting": "T4 lysozyme L99A/M102Q [2]; affinity estimated from concentration where significant Tm upshift was observed", "value": "~1000", "unit": "µM"}]}
{"smiles": "Oc1ccccc1", "note": "[phenol]", "values": [{"measurement": "ΔGb,exp", "setting": "T4 lysozyme L99A/M102Q [1]", "value": -5.24, "unit": "kcal/mol"}]}
{"smiles": "c1cc2sccc2s1", "note": "[thieno[3,2-b]thiophene]", "values": [{"measurement": "ΔGb,exp", "setting": "T4 lysozyme L99A/M102Q [3]; [4]", "value": "-4.67 ± 0.17", "unit": "kcal/mol"}]}
